Earlier results in patent US9550991B2, “Transcription factor decoys” (PROCARTA […]., priority 2010, dated 2017).
Entries after “also recorded” stand apart in the source; their conditions may differ.

Key:
[1] = physiological buffers, biological fluids, salt, dilution, storage

| SMILES | stability of complexes formed with DNA [1] | in vitro toxicity compared to dequalinium |
| --- | --- | --- |
| Nc1c2c([n+](CCCCCCCCCC[n+]3c4c(c(N)c5ccccc53)CCCC4)c3ccccc13)CCCC2.[Cl-].[Cl-] [Compound 7, 10,10′-(decane-1,10-diyl)bis(9-amino-1,2,3,4-tetrahydroacridinium) dichloride] | forms more stable complexes | lower toxicity in vitro compared to dequalinium; also recorded: less in vitro toxicity than dequalinium |
| Cc1cc(N)c2ccccc2[n+]1CCCCCCCCCC[n+]1c(C)cc(N)c2ccccc21 [dequalinium] | unstable over time |  |
